Assay results as given in patent US7927785B2, “Methods for in vitro expansion of hematopoietic stem cells” (The Board of Trustees of the University of Illinois, priority 2002, dated 2011).

Tests used:
[1] = tested on: NOD/SCID mice; test: Hematopoietic colonies cloned from NOD/SCID mouse marrow 7 weeks after human grafts; format: in vivo; conditions: for Estimated Number of Human Colonies: % human cells multiplied by total number of colonies; for % Human Cells: pooled colonies stained for human CD45/CD33, grafts 7 weeks earlier
Protocol: After 7 weeks of passage in vivo of human grafts in NOD/SCID mice, marrow cells from mice were then plated in methylcellulose assays at 100,000 cells/plate as previously described. After 14 days of incubation the number of hematopoietic colonies were enumerated.
Mice were given 300cGy of total body gamma irradiation and human grafts were injected via the tail vein. Cytokines including SCF, IL-3 and GM-CSF at 5 ug/mouse were injected intraperitoneally on alternate days following injection of human grafts during the first week of transplant. Sulfamethoxazole (40 mg/mL) and Trimethoprim (8 mg/mL)(SMX/TMZ; Elkins-Sinn, Cherry Hill, N.J.) were added in the drinking water for 3 days post injection and then subsequently for 3 days beginning the second week of transplant. Mice were sacrificed after 7 weeks. Femurs and tibias were flushed with Hank's balanced salt solution (HBSS) (Biowhittiker) with 2% FBS (Hyclone) and 0.02% sodium azide and cell counts performed. Cells were preincubated with 1 mg/ml of human gamma globulin in staining to block human Fc receptors. Murine Fc receptors were blocked by a second incubation of the cells in 2.4G2 (an anti-mouse Fc receptor moAb). Marrow cells were analyzed by flow cytometry to detect human cell engraftment as previously described.^29 Briefly to quantitate the total number of human cells present an aliquot of cells was stained with anti-CD45-FITC(BD) and anti-CD71-FITC(BD). This aliquot was also stained with anti-CD19-PE(BD) and cyanine-5-succinimidyl-labeled anti-CD34 (BD). After 7 weeks, marrow cells were plated in methylcellulose as previously described. Colonies from these CFC were then pooled and stained with moAb against CD33 and CD45 (BD) to assess the presence of human cells.

[2] = tested on: adult human bone marrow CD34+ cells; test: Ex vivo expansion culture: cell counts and CD34+CD90+ cell numbers; format: cell-based; conditions: for Fold changes from the original cells: CD34+CD90+ cells; for Total counts ×10^5: start 1×10^5 CD34+ cells/well; for expansion of CD34+CD90+ cells / Absolute CD34+ Number (×10^4) / Absolute CD34+CD90+ Numbers (×10^4) / Total Mononuclear Cell Number (×10^4): 9 days with cytokines; for Absolute CD34+ Number (×10^4) / Absolute CD34+CD90+ Numbers (×10^4) / Total Mononuclear Cell Number (×10^4) / Fold Expansion of CD34+CD90+: mean of 3 ± SEM; for Fold Expansion of CD34+CD90+: compared to the primary cell numbers
Protocol: To promote cell division of isolated CD34^+ cells, a stroma-free suspension culture was established as previously described (Bazil et al., 1995). Tissue culture dishes (35 mm; Costar, Corning, N.Y.) were seeded with 1×10^5 CD34^+cells/well in 2.5 mL Iscove modified Dulbecco medium (IMDM) (Biowhittaker, Walkersville, Md.) containing 30% FBS and a cocktail of cytokines specifically thought to promote exit from G0/G1 in primitive HSC populations which consisted of 100 ng/mL recombinant stem cell factor (SCF), 100 ng/mL FLT-3 ligand, 100 ng/mL thrombopoetin (TPO) and 50 ng/mL of interleukin (IL)-3, (all from Amgen Inc., Thousand Oaks, Calif.).
Cells were maintained in the media and incubated at 37° C. in a 100%-humidified atmosphere containing 5% CO2 for 48 hours. After intial 16 hours of incubation cells were exposed to the demethylating agent, 5-aza2′deoxycitidine (5azaD) (Sigma Chemicals, St. Louis, Mo.) at a concentration of 10^−6M. After 48 hours, cells were washed by centrifugation and then equally distributed to new tissue culture dishes in 2.5 mL IMDM supplemented with 30% FBS containing cytokines known to promote terminal differentiation of HSC into multiple hematopoietic lineages. The cocktail of cytokines contained 100 ng/mL of SCF, 50 ng/ml of granulocyte colony-stimulating factor (G-CSF), 50 ng/mL of IL-3, 50 ng/ml of IL-6 and 5 units (U)/mL of recombinant erythropoietin (EPO) (Amgen Inc., Thousand Oaks, Calif.). Cells at this time point were exposed to Trichostatin (TSA) (Sigma Chemical., St. Louis, Mo.) at 5 ng/mL and the culture was continued for an additional 7 days. At the end of the culture period cells were counted for viability by the trypan blue exclusion method using an inverted microscope. 5-fluorouracil (5-FU) (Sigma Chemical., St. Louis, Mo.) was used at a concentration of 200 μg/ml and added at the 16 hour time point instead of 5azaD and the cultures carried on as described above with no addition of TSA.
The phenotypic characteristics of the CD34^+ cells were analyzed using FACS. After 9 days of culture, expanded marrow CD34^+ cells were analyzed for primitive HSC phenotype, previously defined, by using flow activated-cell sorter (FACS) (Becton Dickinson (BD) FACS Calibur, San Jose, Calif.). Cells were stained with anti-human CD34^+ moAb conjugated either to fluorescein isothiocyanate (FITC) or phycoerythrin (PE) and another moAb including anti-CD38, anti-CD117, anti-CD90. To determine the lineage positive cells a panel of moab all conjugated to FITC (anti-CD2, anti-CD14, anti-CD15, anti-CD19 and anti-GlyA) (all antibodies were purchased from BD) were utilized. All anaylsis were paired with the corresponding matched isotype control of the specific moAb utilized. All staining and washes were performed in DPBS (Biowhittaker, Walkersville Md.) and 0.5% BSA (Sigma, Chemicals Co., St. Louis, Mo.). Immediately prior to FACS anaylsis, […] propidium iodide (PI) (Sigma, Chemicals Co., St. Louis, Mo.) was added for the exclusion of nonviable cells for phenotypic analysis. Using Cell-Quest software (BD), at least 10,000 live cells were acquired for each analysis.

[3] = tested on: adult human bone marrow CD34+ cells; test: Cell cycle analysis by FACS (SG2M %); format: cell-based; conditions: for SG2M % 48 hours: 48 hours from the start of the experiment; for SG2M % 72 hours: 72 hours from the start of the experiment
Protocol: Table 4. TSA Increases the Number of Cycling Cells. Cell cycle analysis at 48 h and 72 h from the start of the experiment is shown. Cells were examined by FACS analysis for cell cycle. SG2M % indicates cells in active DNA synthesis and indicates cells that may be actively cycling. This increased cycling allows the incorporation of the hypomethylating agent 5azaD.

[4] = 9 days of culture, single agent

Row | Compound | Estimated Number of Human Colonies [1] | secondary hematopoietic colonies from marrow of grafted mice ([1]; plated in semisolid media with human cytokines) | % Human Cells [1] | % CD34+ of all cells [2, 4] | % CD34+ thy-1+ cells [2, 4] | Absolute CD34+ thy-1+ cells ×10^5 [2, 4] | Absolute CD34 counts ×10^5 [2, 4] | Fold changes from the original cells [2, 4] | Total counts ×10^5 [2, 4] | expansion of CD34+CD90+ cells [2] | Absolute CD34+ Number (×10^4) [2] | Absolute CD34+CD90+ Numbers (×10^4) [2] | Total Mononuclear Cell Number (×10^4) [2] | Fold Expansion of CD34+CD90+ [2] | SG2M % 48 hours [3] | SG2M % 72 hours [3]
1 | Nc1ncn([C@H]2C[C@H](O)[C@@H](CO)O2)c(=O)n1 [5azaD, 5-aza2′deoxycitidine] | 9 | formed significant numbers of secondary hematopoietic colonies | 12% | 26% | 6% | 0.15 ×10^5 | 0.65 ×10^5 | 0.7 fold | 2.5 ×10^5 | more limited expansion | 10.0 ± 4.0 ×10^4 | 4.0 ± 1.7 ×10^4 | 32.0 ± 5.0 ×10^4 | 1.7 ± 0.8 fold | 36.5% | 35.5%
2 | CC(/C=C/C(=O)NO)=C\[C@@H](C)C(=O)c1ccc(N(C)C)cc1 [TSA, Trichostatin A] | 0 |  | 0% | 3.9% |  | 0.31 ×10^5 | 1.7 ×10^5 | 1.4 fold | 46 ×10^5 | more limited expansion | 19.0 ± 1.0 ×10^4 | 4.0 ± 1.0 ×10^4 | 470.0 ± 87.0 ×10^4 | 1.8 ± 0.4 fold | 36% | 41.6%
